This note sets out measurements from the supplement of paper PMC11368000.

The test system of the first assay is 1392 (donor line of iPSC-derived cardiomyocytes). As to the kind of experiment: POD (EC05) for decrease in beat frequency (negative chronotrope) vs vehicle; higher = less potent (higher point of departure). The conditions noted are these: exposure time: 90 min. The protocol: (§1)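 Human iPSC-derived cardiomyocytes from 16 donors were exposed for 90 min at 37 °C to each PFAS at 0.1, 1, 10 and 100 µM in 0.5% DMSO, 384-well plates. Kinetic Ca2+ flux (FLIPR) and Hoechst nuclei counts were normalised to vehicle wells and fitted with a hierarchical Bayesian Hill model to give donor-specific PODs: EC05 for beat-rate increase or decrease and for decay-to-rise ratio increase (QT proxy), EC95 for peak-frequency loss (asystole), EC10 for total cell number loss. 0.03 µM is the lower bound.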
`NC(=O)C(F)(F)C(F)(F)C(F)(F)C(F)(F)C(F)(F)C(F)(F)C(F)(F)F` [Perfluorooctanamide]: the POD vs vehicle was over 100 µM.

In turn, `N=C(N)C(F)(F)C(F)(F)C(F)(F)C(F)(F)C(F)(F)C(F)(F)C(F)(F)F` [Perfluorooctanamidine] had a POD vs vehicle of over 100 µM.

For another assay, the system named is 11235 (donor line of iPSC-derived cardiomyocytes). Described as above. The note with it: exposure time: 90 min. As to the method: as §1
As for `NC(=O)C(F)(F)C(F)(F)C(F)(F)C(F)F`, the POD vs vehicle was over 100 µM.

As to `OCC(O)CC(F)(F)C(F)(F)C(F)(F)C(F)(F)C(F)(F)C(F)(F)C(F)(F)C(F)(F)F` (centres undefined) [1-(Perfluorofluorooctyl)propane-2,3-diol], the POD vs vehicle is over 100 µM.

The compound `CC(O)C(F)(F)C(F)(F)F` (centres undefined) [1-Pentafluoroethylethanol] showed a POD vs vehicle of over 100 µM.

In the case of `OCC(F)(F)C(F)(F)C(F)(F)C(F)F` [1H,1H,5H-Perfluoropentanol], the POD vs vehicle is over 100 µM.

The compound `O=S(=O)(OCC(F)(F)F)C(F)(F)C(F)(F)C(F)(F)C(F)(F)F` [2,2,2-Trifluoroethyl_perfluorobutanesulfonate] had a POD vs vehicle of over 100 µM.

In the case of `O=C(O)C(F)(F)C(F)(F)C(F)F` [2,2,3,3,4,4-Hexafluorobutanoic_acid], the POD vs vehicle is over 100 µM.

Regarding `NC(O)(C(F)(F)F)C(F)(F)F` [2-Aminohexafluoropropan-2-ol], the POD vs vehicle stood at 7.51 µM.

Turning to `O=C(O)CCC(F)(F)C(F)(F)C(F)(F)C(F)(F)C(F)(F)F` [2H,2H,3H,3H-Perfluorooctanoic_acid], the POD vs vehicle worked out at 16.9 µM.

`O=C(O)C=C(C(F)(F)F)C(F)(F)F` [3,3-Bis(trifluoromethyl)-2-propenoic_acid] came in with a POD vs vehicle of over 100 µM.

In turn, `O=C(O)C=CC(F)(C(F)(F)F)C(F)(F)F` [3-(Perfluoroisopropyl)-2-propenoic_acid] displayed a POD vs vehicle of over 100 µM.

Compound `O=C(O)CCC(F)(F)C(F)(F)C(F)(F)C(F)(F)C(F)(F)C(F)(F)C(F)(F)F` [3-Perfluoroheptylpropanoic_acid] registered a POD vs vehicle of 20.2 µM.

In turn, `O=C(O)CCC(F)(F)C(F)(F)C(F)(F)F` [3:3 Fluorotelomer carboxylic acid] gave a POD vs vehicle of over 100 µM.

Compound `O=C(CC(=O)C(F)(F)C(F)(F)F)C(F)(F)F` [3H,3H-Perfluoro-2,4-hexanedione] had a POD vs vehicle of 24.9 µM.

Turning to `OCCC(F)(F)C(F)(F)C(F)(F)C(F)(F)F` [4:2 Fluorotelomer alcohol], the POD vs vehicle was over 100 µM.

With `O=S(=O)(O)CCC(F)(F)C(F)(F)C(F)(F)C(F)(F)F` [4:2 Fluorotelomer sulfonic acid], the POD vs vehicle is over 100 µM.

Regarding `OCC(F)(F)C(F)(F)C(F)(F)C(F)(F)C(F)(F)C(F)(F)F` [6:1 Fluorotelomer alcohol], the POD vs vehicle was determined as 21.5 µM.

`NC(=O)C(F)(F)C(F)(F)C(F)(F)F` [Heptafluorobutyramide] gave a POD vs vehicle of over 100 µM.

Consider `CN(CCO)S(=O)(=O)C(F)(F)C(F)(F)C(F)(F)C(F)(F)C(F)(F)C(F)(F)C(F)(F)C(F)(F)F` [N-Methyl-N-(2-hydroxyethyl)perfluorooctanesulfonamide], for which the POD vs vehicle came to 35.4 µM.

As for `NC(=O)C(F)(F)C(F)(F)C(F)(F)C(F)(F)C(F)(F)C(F)(F)C(F)(F)F` [Perfluorooctanamide], the POD vs vehicle was over 100 µM.

For the compound `N=C(N)C(F)(F)C(F)(F)C(F)(F)C(F)(F)C(F)(F)C(F)(F)C(F)(F)F` [Perfluorooctanamidine], the POD vs vehicle was 0.499 µM.

The next assay concerns 30171 (donor line of iPSC-derived cardiomyocytes). The description is as above. The conditions noted are these: exposure time: 90 min. The protocol: as §1
As to `NC(=O)C(F)(F)C(F)(F)C(F)(F)C(F)F`, the POD vs vehicle is over 100 µM.

The compound `OCC(O)CC(F)(F)C(F)(F)C(F)(F)C(F)(F)C(F)(F)C(F)(F)C(F)(F)C(F)(F)F` (centres undefined) [1-(Perfluorofluorooctyl)propane-2,3-diol] showed a POD vs vehicle of over 100 µM.

For `CC(O)C(F)(F)C(F)(F)F` (centres undefined) [1-Pentafluoroethylethanol], the POD vs vehicle is over 100 µM.

`OCC(F)(F)C(F)(F)C(F)(F)C(F)F` [1H,1H,5H-Perfluoropentanol] displayed a POD vs vehicle of over 100 µM.

Compound `O=S(=O)(OCC(F)(F)F)C(F)(F)C(F)(F)C(F)(F)C(F)(F)F` [2,2,2-Trifluoroethyl_perfluorobutanesulfonate] displayed a POD vs vehicle of 49.1 µM.

With `O=C(O)C(F)(F)C(F)(F)C(F)F` [2,2,3,3,4,4-Hexafluorobutanoic_acid], the POD vs vehicle is over 100 µM.

`NC(O)(C(F)(F)F)C(F)(F)F` [2-Aminohexafluoropropan-2-ol] returned a POD vs vehicle of 36.5 µM.

Compound `O=C(O)CCC(F)(F)C(F)(F)C(F)(F)C(F)(F)C(F)(F)F` [2H,2H,3H,3H-Perfluorooctanoic_acid] displayed a POD vs vehicle of 21.8 µM.

`O=C(O)C=C(C(F)(F)F)C(F)(F)F` [3,3-Bis(trifluoromethyl)-2-propenoic_acid] showed a POD vs vehicle of over 100 µM.

As for `O=C(O)C=CC(F)(C(F)(F)F)C(F)(F)F` [3-(Perfluoroisopropyl)-2-propenoic_acid], the POD vs vehicle is over 100 µM.

Regarding `O=C(O)CCC(F)(F)C(F)(F)C(F)(F)C(F)(F)C(F)(F)C(F)(F)C(F)(F)F` [3-Perfluoroheptylpropanoic_acid], the POD vs vehicle came to 24.9 µM.

`O=C(O)CCC(F)(F)C(F)(F)C(F)(F)F` [3:3 Fluorotelomer carboxylic acid] gave a POD vs vehicle of over 100 µM.

For `O=C(CC(=O)C(F)(F)C(F)(F)F)C(F)(F)F` [3H,3H-Perfluoro-2,4-hexanedione], the POD vs vehicle turned out to be 23.5 µM.

For `OCCC(F)(F)C(F)(F)C(F)(F)C(F)(F)F` [4:2 Fluorotelomer alcohol], the POD vs vehicle was over 100 µM.

The compound `O=S(=O)(O)CCC(F)(F)C(F)(F)C(F)(F)C(F)(F)F` [4:2 Fluorotelomer sulfonic acid] showed a POD vs vehicle of over 100 µM.

The compound `OCC(F)(F)C(F)(F)C(F)(F)C(F)(F)C(F)(F)C(F)(F)F` [6:1 Fluorotelomer alcohol] gave a POD vs vehicle of 24.3 µM.

Take `NC(=O)C(F)(F)C(F)(F)C(F)(F)F` [Heptafluorobutyramide]: the POD vs vehicle was over 100 µM.

Turning to `CN(CCO)S(=O)(=O)C(F)(F)C(F)(F)C(F)(F)C(F)(F)C(F)(F)C(F)(F)C(F)(F)C(F)(F)F` [N-Methyl-N-(2-hydroxyethyl)perfluorooctanesulfonamide], the POD vs vehicle is 20.2 µM.

Compound `NC(=O)C(F)(F)C(F)(F)C(F)(F)C(F)(F)C(F)(F)C(F)(F)C(F)(F)F` [Perfluorooctanamide] gave a POD vs vehicle of over 100 µM.

In turn, `N=C(N)C(F)(F)C(F)(F)C(F)(F)C(F)(F)C(F)(F)C(F)(F)C(F)(F)F` [Perfluorooctanamidine] returned a POD vs vehicle of over 100 µM.

The subject of a further assay is 1531 (donor line of iPSC-derived cardiomyocytes). The assay is described as above. The note with it: exposure time: 90 min. As to the method:
as §1
Compound `NC(=O)C(F)(F)C(F)(F)C(F)(F)C(F)F` gave a POD vs vehicle of over 100 µM.

`OCC(O)CC(F)(F)C(F)(F)C(F)(F)C(F)(F)C(F)(F)C(F)(F)C(F)(F)C(F)(F)F` (centres undefined) [1-(Perfluorofluorooctyl)propane-2,3-diol] displayed a POD vs vehicle of over 100 µM.

For `CC(O)C(F)(F)C(F)(F)F` (centres undefined) [1-Pentafluoroethylethanol], the POD vs vehicle was over 100 µM.

`OCC(F)(F)C(F)(F)C(F)(F)C(F)F` [1H,1H,5H-Perfluoropentanol]: the POD vs vehicle worked out at 45.9 µM.

Turning to `O=S(=O)(OCC(F)(F)F)C(F)(F)C(F)(F)C(F)(F)C(F)(F)F` [2,2,2-Trifluoroethyl_perfluorobutanesulfonate], the POD vs vehicle was over 100 µM.

In the case of `O=C(O)C(F)(F)C(F)(F)C(F)F` [2,2,3,3,4,4-Hexafluorobutanoic_acid], the POD vs vehicle is over 100 µM.

For the compound `NC(O)(C(F)(F)F)C(F)(F)F` [2-Aminohexafluoropropan-2-ol], the POD vs vehicle was over 100 µM.
